#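 Values below derive from 48-hour exposures of cells grown in 96-well plates, with endpoints linearly interpolated between the two concentrations bracketing the appropriate inhibition level. At the GI50, growth is halved.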 Calls of active or inactive are those of the source. Rule as the data show it: active = GI50 up to about 1.1 µM and inactive = higher.
# What was measured:
# Experiment in all cases: NCI tumour cell line growth inhibition, 48 h
# 786-0 = system: 786-0
# A498 = system: A498
# A549 = system: A549
# ACHN = system: ACHN
# BT-549 = system: BT-549
# CAKI-1 = system: CAKI-1
# CCRF-CEM = system: CCRF-CEM
# COLO 205 = system: COLO 205
# DU-145 = system: DU-145
# EKVX = system: EKVX
# HCT-116 = system: HCT-116
# HCT-15 = system: HCT-15
# HL-60 = system: HL-60
# HOP-62 = system: HOP-62
# HOP-92 = system: HOP-92
# HT-29 = system: HT-29
# Hs-578T = system: Hs-578T
# IGROV-1 = system: IGROV-1
# K562 = system: K562
# KM12 = system: KM12
# LOX IMVI = system: LOX IMVI
# M14 = system: M14
# MDA-MB-231 = system: MDA-MB-231
# MDA-MB-435 = system: MDA-MB-435
# MDA-N = system: MDA-N
# MOLT-4 = system: MOLT-4
# Malme-3M = system: Malme-3M
# NCI-H226 = system: NCI-H226
# NCI-H23 = system: NCI-H23
# NCI-H460 = system: NCI-H460
# NCI-H522 = system: NCI-H522
# NCI/ADR-RES = system: NCI/ADR-RES
# OVCAR-3 = system: OVCAR-3
# OVCAR-5 = system: OVCAR-5
# OVCAR-8 = system: OVCAR-8
# PC-3 = system: PC-3
# RPMI-8226 = system: RPMI-8226
# RXF 393 = system: RXF 393
# SF-268 = system: SF-268
# SF-295 = system: SF-295
# SF-539 = system: SF-539
# SK-MEL-28 = system: SK-MEL-28
# SK-MEL-2 = system: SK-MEL-2
# SK-MEL-5 = system: SK-MEL-5
# SK-OV-3 = system: SK-OV-3
# SN12C = system: SN12C
# SNB-19 = system: SNB-19
# SNB-75 = system: SNB-75
# SW-620 = system: SW-620
# T47D = system: T47D
# TK-10 = system: TK-10
# U-251 = system: U-251
# UACC-257 = system: UACC-257
# UACC-62 = system: UACC-62
# UO-31 = system: UO-31
smiles,measurement,setting,value
O=c1[nH][nH]c(=O)n1Cc1ccccc1Cn1c(=O)[nH][nH]c1=O,GI50,786-0,> 100 µM (inactive)
same,GI50,A498,> 100 µM (inactive)
same,GI50,A549,> 100 µM (inactive)
same,GI50,ACHN,> 100 µM (inactive)
same,GI50,BT-549,> 100 µM (inactive)
same,GI50,CAKI-1,> 100 µM (inactive)
same,GI50,CCRF-CEM,> 100 µM (inactive)
same,GI50,COLO 205,> 100 µM (inactive)
same,GI50,DU-145,> 100 µM (inactive)
same,GI50,EKVX,> 100 µM (inactive)
same,GI50,HCT-116,> 100 µM (inactive)
same,GI50,HCT-15,> 100 µM
same,GI50,HL-60,> 100 µM (inactive)
same,GI50,HOP-62,> 100 µM (inactive)
same,GI50,HOP-92,> 100 µM (inactive)
same,GI50,HT-29,> 100 µM (inactive)
same,GI50,Hs-578T,> 100 µM (inactive)
same,GI50,IGROV-1,> 100 µM (inactive)
same,GI50,K562,> 100 µM (inactive)
same,GI50,KM12,> 100 µM (inactive)
same,GI50,LOX IMVI,> 100 µM (inactive)
same,GI50,M14,> 100 µM (inactive)
same,GI50,MDA-MB-231,> 100 µM (inactive)
same,GI50,MDA-MB-435,> 100 µM (inactive)
same,GI50,MDA-N,> 100 µM (inactive)
same,GI50,MOLT-4,> 100 µM (inactive)
same,GI50,Malme-3M,> 100 µM (inactive)
same,GI50,NCI-H226,> 100 µM (inactive)
same,GI50,NCI-H23,> 100 µM (inactive)
same,GI50,NCI-H460,> 100 µM (inactive)
same,GI50,NCI-H522,> 100 µM (inactive)
same,GI50,NCI/ADR-RES,> 100 µM (inactive)
same,GI50,OVCAR-3,> 100 µM (inactive)
same,GI50,OVCAR-5,> 100 µM (inactive)
same,GI50,OVCAR-8,> 100 µM (inactive)
same,GI50,PC-3,> 100 µM (inactive)
same,GI50,RPMI-8226,> 100 µM (inactive)
same,GI50,RXF 393,> 100 µM (inactive)
same,GI50,SF-268,> 100 µM (inactive)
same,GI50,SF-295,> 100 µM (inactive)
same,GI50,SF-539,> 100 µM (inactive)
same,GI50,SK-MEL-28,> 100 µM (inactive)
same,GI50,SK-MEL-2,> 100 µM (inactive)
same,GI50,SK-MEL-5,> 100 µM (inactive)
same,GI50,SK-OV-3,> 100 µM (inactive)
same,GI50,SN12C,> 100 µM (inactive)
same,GI50,SNB-19,> 100 µM (inactive)
same,GI50,SNB-75,> 100 µM (inactive)
same,GI50,SW-620,> 100 µM (inactive)
same,GI50,T47D,> 100 µM (inactive)
same,GI50,TK-10,> 100 µM (inactive)
same,GI50,U-251,> 100 µM (inactive)
same,GI50,UACC-257,> 100 µM (inactive)
same,GI50,UACC-62,> 100 µM (inactive)
same,GI50,UO-31,> 100 µM (inactive)
